Starred links: 1 amine or outer side, 2 acyl side, 3 side chain; linkers in the order of their positions; H or OH if unused. Positions of bridges follow the written chain, without caps; N, C: chain ends. Non-standard residues stand in square brackets, D forms with d. Residues, ends and D or L forms follow the SMILES beside them. *: point of attachment. Orn(4R-OH,5R-OCH2CH2NMe3+) = C[N+](C)(C)CCO[C@@H](N[*:3])[C@H](O)C[C@H](N[*:1])C(=O)[*:2]; pTerphenylCO(4''-OnC5H11) = CCCCCOc1ccc(-c2ccc(-c3ccc(C(=O)*)cc3)cc2)cc1; hTyr(3S-OH,4S-OH) = N[C@H](C(=O)O)[C@H](O)[C@@H](O)c1ccc(O)cc1; Pro(3S-OH,4S-Me) = C[C@H]1CN[C@H](C(=O)O)[C@H]1O; Hyp = O=C(O)[C@@H]1C[C@@H](O)CN1
Tests used:
Format in all cases: in vivo
T. mentagrophytes [1] = test: Clinical evaluation of infected skin, T. mentagrophytes dermatophytosis guinea pig model, different doses once weekly, Example 2; conditions: evaluated study day 12, relative to vehicle control
Procedure: (§1) Procedures for animal care and use, preparation of standard inoculum, and infection of the animals were carried out following the same steps as described in Example 1.
(§2) Infected guinea pigs were randomized into the following (1)-(5) groups (10 per group) (see Table 4): (1) a vehicle control (water+mannitol); (2) terbinafine 10 mg/kg PO days 1 and 8, as a positive control; (3) CD101 10 mg/kg SQ days 1 and 8; (4) CD101 20 mg/kg SQ days 1 and 8; and (5) CD101 40 mg/kg SQ days 1 and 8.
(§3) Animals were treated with CD101 SQ or PO (for terbinafine) once a week on days 1 and 8.
(§4) Study Day 1: Infect the animals with T. mentagrophytes and begin treatments.
(§5) Study Day 8: Last treatment.
(§6) Study Day 12: Clinical evaluation of the four quadrants in the marked area is done. Hair samples were obtained from each quadrant. Hairs (10 per quadrant) were planted in Potato Dextrose Agar, and incubated for 48 h for mycological evaluation. Procedures for clinical and mycological evaluations are described below.
(§7) The compounds was administered SQ or PO (0.3 mL/kg […]).
(§8) Clinical assessment of local changes of the infected skin area was scored as follows:
(§9) 1=Few slightly erythematous places on the skin
(§10) 2=Well-defined redness, swelling with bristling hairs.
(§11) 3=Large areas or marked redness incrustation, scaling, bald patches, ulcerated in places.
(§12) 4=Partial damage to the integument and loss of hair
(§13) 5=Extensive damage to the integument and complete loss of hair at the site of infection.
Any other local skin reactions were noted. The assessment of clinical evaluation in the change of scores per treatment group was expressed as percentage relative to the untreated control group of animals using the following formula:
where T=Scores in the test group. K=Scores in the untreated control

T. mentagrophytes [2] = test: Hair root invasion test (mycological evaluation), T. mentagrophytes dermatophytosis guinea pig model, different doses once weekly, Example 2; conditions: evaluated study day 12, relative to vehicle control
Procedure: as §1, §2, §3, §4, §5, §6, §7
Hair samples were removed with sterile forceps from four quadrants. Ten hair samples from each quadrant were inoculated onto the corresponding quadrant on the Potato Dextrose agar plate and incubated at 30° C. for 2 days. The fungal growth at the hair root was examined under a stereomicroscope. The effectiveness of a compound in reducing the number of mycologically positive hair sample per treated group was expressed as percentage relative to the untreated control group of animals using the following formula:
where T=Positive hair in the test group, K=Positive hair in the Untreated control.

[3] = system: T. mentagrophytes ATCC 24953; test: Clinical evaluation of infected skin, T. mentagrophytes dermatophytosis guinea pig model, Example 1; conditions: for Percent Efficacy Clinical: evaluated study day 10, relative to vehicle control
Procedure: A request was made to the Animal Resource Center (ARC) at Case Western Reserve University to order the required number of male albino Harlan-Sprague-Dawley Guinea-Pigs (San Diego, Calif.) with a body weight of 450-500 g. Animals were allowed to acclimate for a minimum of 5 days prior to use. Environmental controls for the animal room were set to maintain a temperature of 16 to 22° C., a relative humidity of 30-70%, and a 12:12 light-dark cycle.
T. mentagrophytes ATCC 24953 was used as the infecting fungus. This strain was selected because it can cause skin infection and results in inflammatory reaction.
T. mentagrophytes (from frozen stock) was sub-cultured on Potato Dextrose Agar plates and incubated at 30° C. for 5-7 days. The colonies were scraped from the plates using sterile normal saline (NaCl 0.85%) solution. After washing for three times with sterile saline the conidia were re-suspended in the same solution. Ten-fold dilutions of conidia suspension were prepared and counted using a hemacytometer. Working suspension of conidia was prepared at a final concentration of 1×10^7 Colony Forming Units (CFUs)/100 μL in normal saline.
Each animal was anesthetized with a cocktail of xylazine and ketamine: 0.2 mL intramuscularly. Using an electric shaver, hair was clipped on left side of the guinea pig back. A closer shave was done with a disposable razor. Using a stencil, a square of 2.5 cm×2.5 cm was marked. The marked skin area was abraded with sterile fine grit sandpaper. A cell suspension containing 1×10^7 conidia in 100 μL was applied and rubbed thoroughly on the abraded skin.
Beginning two hours post inoculation, animals were treated subcutaneously (SQ) for CD101 and orally (PO) terbinafine once daily for a period of nine days, or once a week on days 1 and 8.
Study Day 1: Infected the animals with T. mentagrophytes and begin treatments.
Study Day 9 (treatment day 9): End treatments.
Study Day 10: Clinical evaluation of the four quadrants in the marked area was done. Hair samples were obtained from each quadrant (10 per quadrant). Hairs were planted in Potato Dextrose Agar, and incubated for 48 h for mycological evaluation. Procedures for clinical and mycological evaluations are described below.
CD101 was administered SQ in 0.3 mL, while the terbinafine was given orally in 0.3 mL. Vehicle treated group was also included.
as §8, §9, §10, §11, §12, §13
Any other local skin reactions were noted. The assessment of clinical evaluation in the change of scores per treatment group is expressed as percentage relative to the vehicle control group of animals using the following formula:
where, T=Scores in the test group. K=Scores in the untreated control

## CCCCCOc1ccc(-c2ccc(-c3ccc(C(=O)N[C@H]4C[C@@H](O)[C@@H](OCC[N+](C)(C)C)NC(=O)[C@@H]5[C@@H](O)[C@@H](C)CN5C(=O)[C@H]([C@@H](C)O)NC(=O)[C@H]([C@H](O)[C@@H](O)c5ccc(O)cc5)NC(=O)[C@@H]5C[C@@H](O)CN5C(=O)[C@H]([C@@H](C)O)NC4=O)cc3)cc2)cc1 [CD101] ({pTerphenylCO(4''-OnC5H11)}-[Orn(4R-OH,5R-OCH2CH2NMe3+)]T[Hyp][hTyr(3S-OH,4S-OH)]T[Pro(3S-OH,4S-Me)]; lactam 1-C)
T. mentagrophytes [1]; 10 mg/kg SQ days 1 and 8
  Percent Efficacy Clinical: 90.5%
T. mentagrophytes [1]; 20 mg/kg SQ days 1 and 8
  Percent Efficacy Clinical: 94.2%
T. mentagrophytes [1]; 40 mg/kg SQ days 1 and 8
  Percent Efficacy Clinical: 98.4%
T. mentagrophytes [2]; 10 mg/kg SQ days 1 and 8
  Percent Efficacy Mycological: 80.9%
T. mentagrophytes [2]; 20 mg/kg SQ days 1 and 8
  Percent Efficacy Mycological: 82.9%
T. mentagrophytes [2]; 40 mg/kg SQ days 1 and 8
  Percent Efficacy Mycological: 98.5%
[3]; 35 mg/kg SQ daily for nine days
  Percent Efficacy Clinical: 84.0%
[3]; 35 mg/kg SQ once a week (days 1 and 8)
  Percent Efficacy Clinical: 78.7%
[3]; guinea pigs, 35 mg/kg SQ daily and weekly
  clinical signs versus vehicle control group: fewer clinical signs than the vehicle control group beginning on day 5 post inoculation
[3]; guinea pigs, 35 mg/kg SQ daily or once a week
  injection site reaction: no bruising or redness was noted at the injection site

— patent US20190374601A1, “METHODS FOR TREATING FUNGAL INFECTIONS” (priority 2017, published 2019)
